Experimental data reported in patent publication US12297203B2, “Pyrrolopyrimidine ITK inhibitors” (ACLARIS THERAPEUTICS, INC., priority 2018, dated 2025).

Tests used:
ITK = ITK (Homo sapiens (Human), UniProt Q08881); assay: ITK inhibitor binding potency (LanthaScreen competitive binding assay); details: read-out: ITK Inh. IC50
Text: The ability of candidate compounds to interact with ITK is quantitated by a competitive binding assay using the LanthaScreen technology developed by Life Technologies. This assay is based on the binding of a proprietary, Alexa Fluor® 647-labeled, ATP-competitive kinase inhibitor (kinase tracer-236) to the ITK expression construct in the presence of a Europium-conjugated antibody, resulting in a FRET (fluorescence resonance energy transfer) signal. Displacement of the kinase tracer by compound results in a lower emission ratio upon excitation of the Europium chelate. Candidate compounds are designed as potential irreversible inhibitors of ITK, capable of ligating to an active site cysteine residue resulting in time dependent covalent binding. The time dependent nature of irreversible inhibition is investigated by performing the binding assay with and without a pre-incubation of compound and ITK. […] The inhibitory potency of candidate compounds is measured in 20 mM HEPES pH 7.5, 10 mM MgCl2, 0.01% BSA, 0.0005% Tween-20, and 2% DMSO in the presence of 10 nM ITK, 2 nM Eu-anti-GST antibody, and 50 nM kinase tracer-236 using a 384-well plate format. Background signal is defined in the absence of ITK and uninhibited signal is defined in the presence of vehicle (2% DMSO) alone. Compounds were evaluated in an 11 point dose-response ranging from 20 uM to 0.34 nM. The binding assays are performed under two preincubation conditions to evaluate time dependence of inhibition. For the pre-incubation assay, ITK and Eu-anti-GST antibody are pre-incubated with compound or vehicle for two hours prior to the addition of kinase tracer. The non-preincubated assay is run under conditions where ITK and Eu-anti-GST antibody are added to a mixture of compound and kinase tracer. IC50 values of compounds are determined using a 4 parameter logistical fit of emission ratio as a function of the concentration of compound.

JAK3 = JAK3 (Homo sapiens (Human), UniProt P52333); assay: JAK3 enzyme activity assay (Caliper mobility shift); assay type: biochemical; details: ATP at Km level; read-out: JAK3 Inh. IC50
Chain of JAK3 (P52333 781-1124): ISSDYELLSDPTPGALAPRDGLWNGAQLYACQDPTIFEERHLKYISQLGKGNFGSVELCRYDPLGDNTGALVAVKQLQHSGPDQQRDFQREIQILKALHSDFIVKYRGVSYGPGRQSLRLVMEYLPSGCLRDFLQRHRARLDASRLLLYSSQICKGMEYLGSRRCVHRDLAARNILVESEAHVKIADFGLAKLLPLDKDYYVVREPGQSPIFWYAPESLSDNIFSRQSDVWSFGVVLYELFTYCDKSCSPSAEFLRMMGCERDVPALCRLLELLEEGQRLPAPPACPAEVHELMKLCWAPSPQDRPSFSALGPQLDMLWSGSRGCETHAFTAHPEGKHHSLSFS
Text: The ability of candidate compounds to interact with JAK3 is quantitated by a mobility shift assay using an LC3000 instrument developed by Caliper Life Sciences. This assay is based on mobility shift electrophoresis, in which fluorescently labelled product and fluorescently labelled substrate peaks are separated and detected independently. JAK3 product/substrate separation is obtained using the following instrument settings: Pressure=−1.4 psi, Downstream voltage=−2550V and Upstream voltage=−800V. The inhibitory potency of candidate compounds of JAK3 is measured in 20 mM HEPES pH 7.5, 10 mM MgCl2, 0.01% BSA, 0.0005% Tween-20, and 2% DMSO in the presence of 2.5 nM JAK3 (Life Technologies Catalog #PV3855), […] (Anaspec Catalog #AS-64106) and […] (Km level) using a 384-well plate format. Background signal is defined in the absence of enzyme and uninhibited signal is defined in the presence of vehicle (2% DMSO) alone. Compounds were evaluated in an 11 point dose-response ranging from […] to 0.34 nM. IC50 values of compounds are determined using a 4 parameter logistical fit of emission ratio as a function of the concentration of compound.

[1] = tested on: ITK phosphorylation of its substrate, PLCγ1, at Y783; assay: ITK target modulation assay (PLCγ1 Y783 phosphorylation, anti-CD3 stimulated Jurkat T cells); assay type: cell-based; details: Homo sapiens, Jurkat, anti-CD3 Dynabeads stimulation, read-out: PLC-γ Inh. IC50
Procedure: Target modulation was based upon the ability of a compound to inhibit ITK phosphorylation of its substrate, PLCγ1, at Y783. Human Jurkat T cells (ATCC TIB-152) were plated in V-bottom 96 well plates at 400,000 cells/well in 80 μL medium (RPMI1640 with 10% heat inactivated serum and 55 μM 2-mercaptoethanol and supplemented with glutamine/penicillin/streptomycin). Compounds were added as 10 μL of 10× working stock solutions in medium with 1% DMSO (or medium with 1% DMSO for controls) and placed in a 37° C. incubator with gentle shaking for 1 hour. Stimulation was carried out using anti-CD3 Dynabeads (Invitrogen catalog #1151D) to activate the T cell receptor and mimic antigen presenting cells. Beads were washed and resuspended in medium at 1.84×10^8 beads/ml. Beads were added rapidly to all compound containing and stimulation only wells at 10 μL/well (bead:cell=2:1) with gentle mixing of the bead source between each addition. Wells designated ‘unstimulated’ received 10 μL of media only. The plate was immediately sealed with a plate seal and cells pelleted at 400× g for 4 minutes. Media was removed using a multichannel aspirator, 25 μL of cold hypotonic lysis buffer (VWR M334-100 ml) plus 1×HALT Protease Inhibitor Cocktail (ThermoFisher #78437), 1× Phosphatase Inhibitor Cocktail 2 (Sigma Aldrich #P5726), 1× Phosphatase Inhibitor Cocktail 3 (Sigma Aldrich #P0044) and 2 mM PMSF was added per well. Cells were incubated on ice for 30 minutes to swell the cells then lysed by pipetting 20 times using a multichannel pipet. The plates were then resealed and centrifuged for 5 minutes at 400× g to pellet the cellular debris. Two μL of the soluble component of each sample was spotted onto nitrocellulose and allowed to dry for 30 minutes. Nitrocellulose was wet in 1× Tris Buffer Saline (20 mM Tris pH7.5, 150 mM NaCl) then blocked in LiCOR Odyssey Blocking Buffer (TBS) (LiCOR #927-50000) for 1 hour at room temperature with rocking. Following blocking, nitrocellulose was incubated in LiCOR Odyssey Blocking Buffer (TBS) plus 0.2% Tween20 plus anti-phospho-PLCγ1 (Y783) antibody (CST #2821S) at 1:1000 and anti-PLCγ1 (Abcam #41433) at 1:5000 with gentle rocking overnight at 4° C. Nitrocellulose was then washed four times for 5 minutes each with TBS plus 0.1% Tween20 (TBST) then incubated in LiCOR Odyssey Blocking Buffer (TBS) plus 0.2% Tween20 plus secondary antibodies IRDye 800CW (LiCOR 926-32211) and IRDye 680RD (LiCOR 926-68070) both at 1:15,000 with gentle rocking at room temperature in the dark for 1 hour. Nitrocellulose was then washed four times for 5 minutes each with TBST at room temperature in the dark. A final rinse with TBS was done prior to imaging and quantifying using the LiCOR Odyssey Imager and software respectively.

[2] = tested on: JAK1/3 phosphorylation of its substrate, STAT5, at Y694; assay: JAK1/3 target modulation assay (IL-2 stimulated STAT5 Y694 phosphorylation in PBMC); assay type: cell-based; details: Homo sapiens, PBMC, Primary human peripheral blood mononuclear cells, IL-2 25 ng/mL; read-out: IL2-STAT5 Inh. IC50
Procedure: Target modulation was based upon the ability of a compound to inhibit JAK1/3 phosphorylation of its substrate, STAT5, at Y694. Primary human peripheral blood mononuclear cells were plated in V-bottom 96 well plates at 200,000 cells/well in 120 μL medium (RPMI-1640 with 10% fetal bovine serum, 10 mM HEPES buffer, 12.2 mM 2-mercaptoethanol, and supplemented with glutamine/penicillin/streptomycin). Compounds were added as 15 μL of 10× working stock solutions in medium with 1% DMSO (or medium with 1% DMSO for controls) and placed in a 37° C. incubator with gentle shaking for 1 hour. Stimulation was carried out using recombinant human IL-2 (R&D Systems #202-IL-050) to activate JAK1/3. IL-2 stock solution was diluted in media to 250 ng/mL and was added rapidly to all compound containing and stimulation only wells at 15 μL/well (final concentration=25 ng/mL). Wells designated ‘unstimulated’ received 15 μL of media only. The plate was placed back in a 37° C. incubator with gentle shaking for 5 minutes. After stimulation, the plates were immediately sealed with a plate seal, and cells pelleted at 400× g for 5 minutes. Media was removed using a multichannel aspirator, and 75 μL of cold Tris lysis buffer (MSD #R60TX-3) plus 1× Protease Inhibitor Solution (MSD #R70AA-1), 1× Phosphatase Inhibitor I (MSD #R70AA-1), and 1× Phosphatase Inhibitor II (MSD #R70AA-1) was added per well. Cells were incubated at 4° C. with gentle shaking for at least 30 minutes to allow for complete lysis. The plates were removed from 4° C., and 25 μL of lysate from each well was added to the corresponding well on the MSD plate. Samples were analyzed by either an MSD multiplex kit for Phospho-STAT5a,b/Total-STAT5a,b (MSD #K15163D) or an MSD single-plex kit for Phospho-STAT5a,b (MSD #K150IGD). The protocols for the respective kits were followed, and the plates were read on the MSD SECTOR S 600.

Chain of ITK (Q08881 whole entry): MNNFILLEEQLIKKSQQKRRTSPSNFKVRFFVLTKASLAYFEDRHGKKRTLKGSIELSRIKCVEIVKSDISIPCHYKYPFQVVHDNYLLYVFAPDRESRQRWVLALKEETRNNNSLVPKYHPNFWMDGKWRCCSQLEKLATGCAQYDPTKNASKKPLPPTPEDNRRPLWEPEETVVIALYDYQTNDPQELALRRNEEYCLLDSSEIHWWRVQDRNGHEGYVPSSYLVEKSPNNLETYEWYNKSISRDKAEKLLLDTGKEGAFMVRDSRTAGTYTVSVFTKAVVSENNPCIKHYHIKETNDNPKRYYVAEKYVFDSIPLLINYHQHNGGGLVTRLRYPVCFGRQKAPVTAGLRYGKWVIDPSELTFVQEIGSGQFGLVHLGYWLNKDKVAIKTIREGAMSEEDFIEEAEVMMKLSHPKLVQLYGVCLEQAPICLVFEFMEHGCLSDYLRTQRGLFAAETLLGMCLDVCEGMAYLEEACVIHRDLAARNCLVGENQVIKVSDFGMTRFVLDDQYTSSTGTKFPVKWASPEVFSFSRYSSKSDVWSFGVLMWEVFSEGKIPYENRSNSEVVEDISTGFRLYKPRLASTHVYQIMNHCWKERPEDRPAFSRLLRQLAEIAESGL

Row | IC50 (ITK) | IC50 (JAK3) | IC50 [1] | IC50 [2] | Structure (SMILES)
1 | ≤ 10 nM | ≤ 10 nM | > 1000 nM | 100 to 1000 nM | C=CC(=O)N1CCC[C@@H](Nc2ncnc3[nH]cc(C(=O)OCC)c23)C1 [Example 1, ethyl (R)-4-((1-acryloylpiperidin-3-yl)amino)-7H-pyrrolo[2,3-d]pyrimidine-5-carboxylate]
2 | ≤ 10 nM | ≤ 10 nM | ≤ 100 nM | 100 to 1000 nM | C=CC(=O)N1C[C@H](Nc2ncnc3[nH]cc(C(=O)OCCC)c23)CC[C@@H]1C [Example 3, propyl 4-(((3R,6S)-1-acryloyl-6-methylpiperidin-3-yl)amino)-7H-pyrrolo[2,3-d]pyrimidine-5-carboxylate]
3 | ≤ 10 nM | ≤ 10 nM | 100 to 1000 nM | 100 to 1000 nM | C=CC(=O)N1C[C@H](Nc2ncnc3[nH]cc(C(=O)OC(C)C)c23)CC[C@@H]1C [Example 4, isopropyl 4-(((3R,6S)-1-acryloyl-6-methylpiperidin-3-yl)amino)-7H-pyrrolo[2,3-d]pyrimidine-5-carboxylate]
4 | ≤ 10 nM | ≤ 10 nM | 100 to 1000 nM | 100 to 1000 nM | C=CC(=O)N1C[C@H](Nc2ncnc3[nH]cc(CC4CCC(CC)C4)c23)CC[C@@H]1C (mixture of isomers) [Example 36, 1-((2S,5R)-5-((5-((3-ethylcyclopentyl)methyl)-7H-pyrrolo[2,3-d]pyrimidin-4-yl)amino)-2-methylpiperidin-1-yl)prop-2-en-1-one]
5 | ≤ 10 nM | ≤ 10 nM | ≤ 100 nM | 100 to 1000 nM | C=CC(=O)N1C[C@H](Nc2ncnc3[nH]cc(CC4CC4)c23)CC[C@@H]1C [Example 24, 1-((2S,5R)-5-((5-(cyclopropylmethyl)-7H-pyrrolo[2,3-d]pyrimidin-4-yl)amino)-2-methylpiperidin-1-yl)prop-2-en-1-one]

Second part, the molecule before the results:

Row | Structure (SMILES) | IC50 (ITK) | IC50 (JAK3) | IC50 [1] | IC50 [2]
6 | C=CC(=O)N1CCC[C@@H](Nc2ccnc3[nH]cc(C(=O)CCOC)c23)C1 [Example 8, (R)-1-(3-((3-(3-methoxypropanoyl)-1H-pyrrolo[2,3-b]pyridin-4-yl)amino)piperidin-1-yl)prop-2-en-1-one] | 10 to 100 nM | 10 to 100 nM | > 1000 nM | > 1000 nM
7 | C=CC(=O)N1C[C@H](Nc2ncnc3[nH]cc([C@H]4CC4(F)F)c23)CC[C@@H]1C(C)C (single isomer, unassigned) [Example 63] | > 100 nM | > 100 nM | > 1000 nM | > 1000 nM
8 | C=CC(=O)N1CCC(Nc2cnc3[nH]cc(C(=O)OCC)c3n2)CC1 [Example 97, ethyl 2-((1-acryloylpiperidin-4-yl)amino)-5H-pyrrolo[2,3-b]pyrazine-7-carboxylate] | > 100 nM | ≤ 10 nM | > 1000 nM | 100 to 1000 nM
9 | C=CC(=O)N1CCC(Nc2cnc3[nH]cc(C(=O)C4CC4)c3c2)CC1 [Example 98, 1-(4-((3-(cyclopropanecarbonyl)-1H-pyrrolo[2,3-b]pyridin-5-yl)amino)piperidin-1-yl)prop-2-en-1-one] | > 100 nM | 10 to 100 nM | > 1000 nM | > 1000 nM
10 | C=CC(=O)N1C[C@H](Nc2ncnc3[nH]cc(C4CC4(F)F)c23)CC[C@@H]1C (mixture of isomers) [Example 47, 1-((2S,5R)-5-((5-(2,2-difluorocyclopropyl)-7H-pyrrolo[2,3-d]pyrimidin-4-yl)amino)-2-methylpiperidin-1-yl)prop-2-en-1-one] | ≤ 10 nM | ≤ 10 nM | ≤ 100 nM | ≤ 100 nM
11 | C=CC(=O)N1C[C@H](Nc2ccnc3[nH]cc([C@H]4C[C@@H]4COC)c23)CC[C@@H]1C (single isomer, unassigned) [Example 76] | > 100 nM | 10 to 100 nM | > 1000 nM | > 1000 nM
12 | C/C=C/C(=O)N1C[C@H](Nc2ncnc3[nH]cc([C@@H]4CC4(F)F)c23)CC[C@@H]1C (single isomer, unassigned) [Example 58] | > 100 nM | > 100 nM | 100 to 1000 nM | > 1000 nM
13 | C=CC(=O)N1CCC[C@@H](Nc2ncnc3[nH]cc(C(=O)[C@@H]4CCOC4)c23)C1 (single isomer, unassigned) [Example 12] | ≤ 10 nM | 10 to 100 nM | > 1000 nM | > 1000 nM
